What was measured:
MAO-A = MAO-A (Homo sapiens (Human), UniProt P21397); assay: Competitive binding test against MAO-A with [18F] Fluoroethyl harmine; conditions: for IC50: label ligand [18F] Fluoroethyl harmine; for binding against MAO-A (in words): competitive binding test
Description: MAO-A (M7316) was purchased from Sigma Aldrich Co. LLC (St. Louis, MO). The […] (0.5 μg) and 0.1 to 10,000 nM of [^18F] Fluoroethyl harmine (10 μCi/mL, 2 nM) […] were mixed (200 μL), and the mixture was reacted at room temperature for 1 hour. The reaction solution was transfered to MultiScreen HTS 96-well 0.65 μm filtration plate (Millipore, Billerica, MA), and a B/F separation was conducted with MultiScreen HTS Vacuum Manifold, and washed with Dulbecco's PBS and 0.1% BSA three times, and a radioactivity contained in a filter was measured with a gamma counter (AccFLEX γ7000, manufactured from ALOKA Co. Ltd.). The IC50 value was calculated similarly to the case of MAO-B.

tau = tau (Homo sapiens, UniProt P10636); assay: Competitive binding against tau in Alzheimer's disease brain with [3H] MK-6240; conditions: for IC50: Alzheimer's disease brain (Braak stage VI), label ligand [3H] MK-6240; for binding to tau (in words): competitive binding test
Chain of tau (P10636 2-758 limits assumed): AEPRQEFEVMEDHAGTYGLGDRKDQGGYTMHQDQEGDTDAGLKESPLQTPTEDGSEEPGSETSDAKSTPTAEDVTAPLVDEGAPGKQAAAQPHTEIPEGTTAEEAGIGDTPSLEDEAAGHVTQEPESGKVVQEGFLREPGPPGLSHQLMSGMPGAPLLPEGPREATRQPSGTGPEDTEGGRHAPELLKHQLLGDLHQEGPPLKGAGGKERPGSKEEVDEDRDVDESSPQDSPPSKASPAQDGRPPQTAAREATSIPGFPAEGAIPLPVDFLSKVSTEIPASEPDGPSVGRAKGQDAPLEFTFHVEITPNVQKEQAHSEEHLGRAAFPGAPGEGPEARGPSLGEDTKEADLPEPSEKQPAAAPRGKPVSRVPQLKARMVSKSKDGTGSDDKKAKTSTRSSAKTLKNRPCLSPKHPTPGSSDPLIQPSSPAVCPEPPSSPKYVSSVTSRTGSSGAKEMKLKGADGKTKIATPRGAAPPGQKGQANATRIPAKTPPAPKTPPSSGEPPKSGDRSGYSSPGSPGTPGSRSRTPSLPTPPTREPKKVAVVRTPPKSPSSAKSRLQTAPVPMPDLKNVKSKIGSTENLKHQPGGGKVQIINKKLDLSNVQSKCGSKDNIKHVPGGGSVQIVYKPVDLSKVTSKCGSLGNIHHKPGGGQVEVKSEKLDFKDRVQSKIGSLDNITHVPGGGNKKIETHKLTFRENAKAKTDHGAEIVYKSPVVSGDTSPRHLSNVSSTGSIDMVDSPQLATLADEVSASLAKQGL
Description: A binding affinity against tau containined in a AD brain was conducted by using Alzheimer's disease brain (Braak stage VI) and [3H] MK-6240 (manufactured by Metck & Co) as a label ligand. The IC50 value was calculated similarly to the case of MAO-B.

MAO-B [1] = target: T1, MAO-B (Homo sapiens (Human), UniProt P27338); assay: Competitive binding test against MAO-B with [3H] THK-5351; conditions: for IC50: MAO-B membrane fractions, label ligand [3H] THK-5351; for binding to MAO-B (in words): competitive binding test
T1 sequence (P27338 whole entry): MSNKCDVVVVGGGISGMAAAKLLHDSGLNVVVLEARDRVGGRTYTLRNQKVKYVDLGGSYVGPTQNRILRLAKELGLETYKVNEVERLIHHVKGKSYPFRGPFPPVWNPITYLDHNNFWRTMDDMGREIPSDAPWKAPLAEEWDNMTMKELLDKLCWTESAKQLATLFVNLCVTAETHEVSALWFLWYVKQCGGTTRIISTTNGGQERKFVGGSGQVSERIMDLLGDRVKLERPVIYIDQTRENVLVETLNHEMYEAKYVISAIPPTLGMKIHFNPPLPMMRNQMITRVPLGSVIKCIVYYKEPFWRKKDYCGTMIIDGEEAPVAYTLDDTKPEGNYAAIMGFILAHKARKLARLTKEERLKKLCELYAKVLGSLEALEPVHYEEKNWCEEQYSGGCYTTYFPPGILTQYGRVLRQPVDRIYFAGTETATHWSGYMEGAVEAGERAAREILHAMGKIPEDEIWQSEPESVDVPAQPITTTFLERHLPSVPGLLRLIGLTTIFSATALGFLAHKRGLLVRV
Description: MAO-B (M7441) was purchased from Sigma Aldrich Co. LLC (St. Louis, MO). The MAO-B membrane fractions (0.5 μg), and 0.1 to 10,000 nM of [3H] […] The reaction solution was transferred to MultiScreen HTS 96-well […] filtration plate (Millipore, Billerica, MA), and a B/F separation was conducted with a MultiScreen HTS Vacuum Manifold, and the mixture was washed with Dulbecco's PBS, and 0.1% BSA three times, and the filter was incubated with 2 mL of Scintillation fluid (Emulssifer-Safe; Perkin Elemer, Boston, MA), and a radio activity was measured with a beta counter (LS6500 liquid scintillation counter, Beckman Counter, Brea, CA). IC50 value was calculated by using Graph Pad Prism Version 7 (GraphPad Software, San Diego, CA).

MAO-B [2] = target: T1, MAO-B; assay: In vitro autoradiography of human necropsy brain sections; assay type: binding
Description: Each […] slice frozen section of a normal necropsy brain (person) and an Alzheimer's disease necropsy brain (person; neurofibrillary tangles stage was Braak stage VI) was dried at room temperature, and phosphate buffered saline (PBS) was added thereto and the wetting treatment was consucted for 30 minutes. Pre-incubation was conducted for 30 minutes by using PBS containing 1% bovine serum albumin (BSA). A PBS (370 kBq/mL) containing 1% BSA of the ^18F labeled compound were added dropwise to the section, and the reaction was conducted at room temperature for 30 minutes. In order to evaluate a specific binding to MAO-B, a similar reaction to the above reaction was conducted in the presence of MAO-B selective inhibitor (that is, Lazabemide) (10 μM). After that, the section was washed by soaking it in PBS containing 1% BSA for 5 minutes, and further in PBS for 5 minutes twice. After the section was dried at room temperature, an imaging plate (GE healthcare, BAS-MS 2025) was exposed to light, and an image (spartial resolution 25 μm×25 μm) was acquired by a FLA-9500 imaging analyzer plate (GE healthcare). The adjacent sections were subjected to an immunostaining using MAO-B (manufactured from Sigma, Aldrich, Co. LLC), AT8 tau (manufactured from Innogenetics, N.V.), or 6F/3D 6-amyloid (DAKO) antibody, and the resulting stainned distributions were compared with a distribution of a binding to tracer. Similar tests were conducted by using as comparative compound, (S)-[^18F] HK-5174 (WO 2017/103257 A1), and(S)-[^18F] THK-5351, each having the following structural formula respectively.

[3] = Dynamic evaluation (body distribution) in normal mouse; assay type: in vivo; conditions: bone accumulation, male ICR mouse
Description: Each saline containing [^18F] HK-5470 as the compound of the present invention, (S)-[^18F] HK-5174 as the comparative compound, or [^18F] HK-5351 as the ^18F labeled-compound (740 kBq) was administered intravenously via tail to male ICR mouse (6 weeks old), and after 2 min., 10 min., 30 min., 60 min., and 120 min., cervical dislocation of mouse was performed under ether anesthesia, and each organ tissue including brain was extracted, and a weight and a radioactivity of each organ was measured with Gamma counter (AccuFLEX γ7000, measured by Hitachi-Aloka Medical, Tokyo). The accumulation of radioactivity was evaluated by making the ratio of radioactivity per weight of tissue against total administered radioactivity (% Injected Dose/g of tissue; % ID/g) an index. The evaluation was conducted in a ratio of four per group.

Chain of MAO-A (P21397 whole entry): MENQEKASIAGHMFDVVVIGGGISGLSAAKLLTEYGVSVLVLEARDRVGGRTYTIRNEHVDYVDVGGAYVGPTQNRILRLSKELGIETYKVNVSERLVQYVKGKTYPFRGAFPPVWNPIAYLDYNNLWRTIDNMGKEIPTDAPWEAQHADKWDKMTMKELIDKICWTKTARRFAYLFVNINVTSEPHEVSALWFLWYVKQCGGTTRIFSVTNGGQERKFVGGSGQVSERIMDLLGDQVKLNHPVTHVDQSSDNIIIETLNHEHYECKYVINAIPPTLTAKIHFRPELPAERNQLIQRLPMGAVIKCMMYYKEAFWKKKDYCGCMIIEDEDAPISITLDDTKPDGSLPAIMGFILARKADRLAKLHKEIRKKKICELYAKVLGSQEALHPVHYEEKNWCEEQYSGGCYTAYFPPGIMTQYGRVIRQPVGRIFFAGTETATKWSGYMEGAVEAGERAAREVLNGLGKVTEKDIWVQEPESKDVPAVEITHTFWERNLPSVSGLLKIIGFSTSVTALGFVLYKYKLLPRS

| SMILES | IC50 (MAO-A) [µM] | IC50 (tau) [µM] | binding to tau (in words) (tau) | IC50 (MAO-B [1]) [µM] | binding to MAO-B (in words) (MAO-B [1]) | binding against MAO-A (in words) (MAO-A) | defluorination to bone [3] | accumulation in Alzheimer's disease (AD) frontal lobe sections (MAO-B [2]; 18F labeled compound 370 kBq/mL, autoradiography) | binding in the presence of MAO-B selective inhibitor Lazabemide (MAO-B [2]; Lazabemide 10 μM, AD frontal lobe section) | specificity of binding (autoradiography conclusion) (MAO-B [2]; human brain sections, compared with MAO-B and tau immunostaining) |
| --- | --- | --- | --- | --- | --- | --- | --- | --- | --- | --- |
| CNc1ccc(-c2ccc3cc(OC[C@H](O)CF)ccc3n2)cn1 [THK-5351, reference compound] | > 10 | 0.15 | mild binding | 0.005 | high binding | – | – | – | – | – |
| Cc1cc(-c2ccc3cc(OC[C@H](O)CF)ccc3n2)ccn1 [THK-5471] | 1.75 | 0.192 | low binding | 0.0129 | significantly high binding | low binding | – | – | – | – |
| Cc1ncccc1-c1ccc2cc(OC[C@H](O)CF)ccc2n1 [THK-5472] | > 10 | > 10 | low binding | 0.55 | – | low binding | – | – | – | – |
| CNc1ccc(-c2ccc3cc(OC[C@H](O)C[18F])ccc3n2)cn1 [[^18F] THK-5351] | – | – | – | – | – | – | could not be confirmed | high accumulation | decrease in the binding | binds to both MAO-B and tau |

The next lines start with results.

| IC50 (MAO-A) [µM] | IC50 (tau) [µM] | binding to tau (in words) (tau) | IC50 (MAO-B [1]) [µM] | binding to MAO-B (in words) (MAO-B [1]) | binding against MAO-A (in words) (MAO-A) | defluorination to bone [3] | SMILES | accumulation in Alzheimer's disease (AD) frontal lobe sections (MAO-B [2]; 18F labeled compound 370 kBq/mL, autoradiography) | binding in the presence of MAO-B selective inhibitor Lazabemide (MAO-B [2]; Lazabemide 10 μM, AD frontal lobe section) | specificity of binding (autoradiography conclusion) (MAO-B [2]; human brain sections, compared with MAO-B and tau immunostaining) |
| --- | --- | --- | --- | --- | --- | --- | --- | --- | --- | --- |
| 0.713 | 4.46 | – | – | – | – | – | Cc1ccc(-c2ccc3cc(OC[C@H](O)CF)ccc3n2)cn1 [THK-5470] | – | – | – |
| > 10 | > 10 | low binding | 0.294 | – | low binding | – | Cc1ccncc1-c1ccc2cc(OC[C@H](O)CF)ccc2n1 [THK-5473] | – | – | – |
| > 10 | 9.63 | low binding | 0.0122 | significantly high binding | low binding | – | Cc1cncc(-c2ccc3cc(OC[C@H](O)CF)ccc3n2)c1 [THK-5474] | – | – | – |

Reference: US12522579B2, “Monoamine oxidase B imaging probe” (TOHOKU UNIVERSITY, priority 2018, dated 2026)
